Reference: patent publication EP4813991A1 (iLeadBMS Co., Ltd., priority 2023, dated 2025)

How the values were obtained:
AGS gastric cancer cells = experiment: Zebrafish xenograft gastric cancer model (AGS); assay type: in vivo
Experimental: Transgenic Tg(fli1:EGFP)y1 zebrafish embryos were cultured in E3 embryo medium with 0.2 mM 1-phenyl-2-thiourea (PTU) at 28 °C for 48 hours. HCC70 breast cancer cells were cultured using RPMI-1640 medium supplemented with 10 % FBS, and AGS gastric cancer cells were cultured using F-12K medium supplemented with 10 % FBS. Each cell was collected, labeled with Dil red fluorescent dye, and then subcutaneously transplanted into 2-day-old zebrafish embryos. After selecting embryos with tumors, they were classified into experimental groups (20 embryos per group), and each Example compound dissolved and diluted in DMSO across 2 to 3 concentration ranges, a DMSO control group, or a comparative compound were added, followed by incubation at 35.5 °C for 48 hours or 72 hours. In the breast cancer model, primary tumors were collected immediately after transplantation (Day 0) and after 48 hours (Day 2), and in the gastric cancer model, primary tumors were obtained immediately after transplantation (Day 0) and after 72 hours (Day 3). Images of the collected tumors were analyzed for reduction in tumor size compared to the DMSO control group using image software, and the number of disseminated cancer cells after 3 days was manually counted through the captured images, with the results shown in FIGs. 6, 7, and 8. […]

MIA-PaCa2-Control = experiment: Pancreatic cancer cell proliferation inhibitory activity, MIA-PaCa2-Control; assay type: cell-based; details: 72 hours, Cell Counting Kit-8, relative IC50
Experimental: Experiments were performed using three types of pancreatic cancer cell lines to measure the cell proliferation inhibitory ability of the compounds of the present invention. AsPC-1, MIA-PaCa2-Control, and Gemcitabine resistant-MIA-PaCa2 cells were dispensed into a 96-well plate at 100 uL of cell suspension per well using DMEM medium containing 10 % FBS and 1 % PS, followed by incubation in a cell incubator at 37 °C and 5 % CO2. The next day, the compound of Example 8 dissolved and diluted in DMSO across 10 concentration ranges and a DMSO control group were treated on the cells for 72 hours. After completion of the compound treatment, 10 µL of Cell Counting Kit-8 (Dojindo) reagent was added to each well of the 96-well plate, followed by incubation for 2 hours. […] were measured after inserting the 96-well plate into an Envision plate reader […]. Relative IC50 values were calculated by fitting a dose-response curve using Graphpad PRISM software.
The pancreatic cancer cell proliferation inhibitory activities of the Example compounds measured by the method described above were evaluated according to the following criteria, and the results are presented in Table 18.

HT29 cells = experiment: Colorectal cancer cell proliferation inhibitory activity, HT29; assay type: cell-based; details: Homo sapiens, HT-29; 72 hours, Cell Counting Kit-8, relative IC50
Experimental: (§1) Experiments were performed using seven types of colorectal cancer cell lines to measure the cell proliferation inhibitory ability of each Example compound. DLD-1, LoVo, SW620, SW480, HCT116, HCT15, and HT29 cells were dispensed into a 96-well plate at 100 µL of cell suspension per well using RPMI1640 medium containing 10 % FBS and 1 % PS, followed by incubation in a cell incubator at 37 °C and 5 % CO2. The next day, each Example compound dissolved and diluted in DMSO across 10 concentration ranges and a DMSO control group were treated on the cells for 72 hours. After completion of the compound treatment, 10 µL of Cell Counting Kit-8 (Dojindo) reagent was added to each well of the 96-well plate, followed by incubation for 2 hours. […] were measured after inserting the 96-well plate into an Envision plate reader […]. Relative IC50 values were calculated by fitting a dose-response curve using Graphpad PRISM software.
The colorectal cancer cell proliferation inhibitory activities of the Example compounds measured by the method described above were evaluated according to the following criteria, and the results are presented in Table 19.

NCI-N87 = experiment: Gastric cancer cell proliferation inhibitory activity (Cell Counting Kit-8), NCI-N87; assay type: cell-based; details: Homo sapiens, 72 hours, Cell Counting Kit-8, relative IC50
Experimental: as §1, with “six” for “seven”, “gastric” for “colorectal”, “NCI-N87, SNU601, KATO-III, MKN1,” for “DLD-1, LoVo, SW620, SW480, HCT116, HCT15,”, “AGS” for “HT29”, “RPMI1640 medium containing 10 % FBS and 1 % PS, followed by incubation in a cell incubator at 37 °C and 5 % CO2. HS746T cells were dispensed into a 96-well plate at 100 µL of cell suspension per well using DMEM” for “RPMI1640”
(§2) The gastric cancer cell proliferation inhibitory activities of the Example compounds measured by the method described above were evaluated according to the following criteria, and the results are presented in Table 20.

KATO-III = experiment: Gastric cancer cell proliferation inhibitory activity (Cell Counting Kit-8), KATO-III; assay type: cell-based; details: Homo sapiens, 72 hours, Cell Counting Kit-8, relative IC50
Experimental: as §1, with “six” for “seven”, “gastric” for “colorectal”, “NCI-N87, SNU601, KATO-III, MKN1,” for “DLD-1, LoVo, SW620, SW480, HCT116, HCT15,”, “AGS” for “HT29”, “RPMI1640 medium containing 10 % FBS and 1 % PS, followed by incubation in a cell incubator at 37 °C and 5 % CO2. HS746T cells were dispensed into a 96-well plate at 100 µL of cell suspension per well using DMEM” for “RPMI1640”
as §2

HS746T cells = experiment: Gastric cancer cell proliferation inhibitory activity (Cell Counting Kit-8), HS746T; assay type: cell-based; details: Homo sapiens, 72 hours, Cell Counting Kit-8, relative IC50
Experimental: as §1, with “six” for “seven”, “gastric” for “colorectal”, “NCI-N87, SNU601, KATO-III, MKN1,” for “DLD-1, LoVo, SW620, SW480, HCT116, HCT15,”, “AGS” for “HT29”, “RPMI1640 medium containing 10 % FBS and 1 % PS, followed by incubation in a cell incubator at 37 °C and 5 % CO2. HS746T cells were dispensed into a 96-well plate at 100 µL of cell suspension per well using DMEM” for “RPMI1640”
as §2

IC50 (MIA-PaCa2-Control): ≤ 0.2 µM
IC50 (HT29 cells): ≤ 0.2 µM
IC50 (NCI-N87): ≤ 0.2 µM
IC50 (KATO-III): ≤ 0.2 µM
IC50 (HS746T cells): ≤ 0.2 µM
SMILES: CN1CCN(c2cc(NCc3nc4ccc(F)c(F)c4[nH]3)c3ncc(C(F)(F)F)n3n2)CC1 [Example 8, N-((6,7-difluoro-1H-benzo[d]imidazol-2-yl)methyl)-6-(4-methylpiperazin-1-yl)-3-(trifluoromethyl)imidazo[1,2-b]pyridazin-8-amine]
number of metastatic gastric cancer cells (AGS gastric cancer cells; 0.1 µM, compared to 1 mM of 5-FU, FIG. 8): significant reduction in the number of metastatic gastric cancer cells
reduction in tumor size (AGS gastric cancer cells; 72 hours, compared to the vehicle, FIG. 7): dose-dependent reduction in tumor size
